Test results reported in EP0094564A2, “Azolyl-methyl oxiranes, their preparation and use as medicaments and plant protecting agents” (BASF Aktiengesellschaft, priority 1982, dated 1983).
In brackets after ≈: the same amount, converted by molar mass.

What was measured:
[1] = test system: Cand.alb. H; assay: Candida albicans pseudomycelium/mycelium phase test, MIC; assay type: cell-based; conditions: in vitro, column H, read-out: Minimale Hemmkonzentration (MHK) Cand.alb. H
From the text: (§1) Die Wirkung gegen Dermatophyten, Bakterien und Protozonen kann nach Methoden, wie sie beispielsweise in P. Klein, Bakteriologische Grundlagen der chemotherapeutischen Laboratoriumspraxis, Springer-Verlag Berlin, 1957, beschrieben wird, aufgezeigt werden. Die überraschende Wirkung gegenüber Hefen wurde im Pseudomyzel- und Myzelphasentest mit Candida albicans nachgewiesen (vgl. DE-OS 30 10 093). Es wurde geprüft, welche minimalen Hemmkonzentrationen (MHK-Werte) im Agardilutionstest erreicht werden. In der Tabelle 1 sind die Ergebnisse zusammengefaßt.

[2] = test system: Strept. faec. 8043; assay: Agar dilution test, minimal inhibitory concentration in vitro; assay type: cell-based; conditions: read-out: Minimale Hemmkonzentration (MHK) Strept. faec. 8043
From the text: as §1

[3] = test system: Microsp. ferrug. 5; assay: as above; assay type: cell-based; conditions: read-out: Minimale Hemmkonzentration (MHK) Microsp. ferrug. 5
From the text: as §1

[4] = test system: Mucor pus. 6; assay: as above; assay type: cell-based; conditions: read-out: Minimale Hemmkonzentration (MHK) Mucor pus. 6
From the text: as §1

[5] = test system: Abs. corym. 1; assay: as above; assay type: cell-based; conditions: read-out: Minimale Hemmkonzentration (MHK) Abs. corym. 1
From the text: as §1

[6] = test system: E.coli muta-flor; assay: as above; assay type: cell-based; conditions: Escherichia coli, read-out: Minimale Hemmkonzentration (MHK) E.coli muta-flor
From the text: as §1

[7] = test system: Aps.fum. 2; assay: as above; assay type: cell-based; conditions: read-out: Minimale Hemmkonzentration (MHK) Aps.fum. 2
From the text: as §1

[8] = test system: Staph. aur. SG 511; assay: as above; assay type: cell-based; conditions: read-out: Minimale Hemmkonzentration (MHK) Staph. aur. SG 511
From the text: as §1

[9] = test system: Weizenbraunrost (Puccinia recondita); assay: Versuch 2: activity against wheat brown rust on wheat seedlings; assay type: in vivo; conditions: 0,025; 0,006; 0,0015 %ige Spritzbrühen; sprayed 24 h after inoculation; assessed after 8 days; value given as 'beispielsweise'
Description: Blätter von in Töpfen gewachsenen Weizensämlingen der Sorte "Jubilar" wurden mit Sporen des Braunrostes (Puccinia recondita) bestäubt. Danach wurden die Töpfe für 24 Stunden bei 20 bis 22°C in eine Kammer mit hoher Luftfeuchtigkeit (90 bis 95 %) gestellt. Während dieser Zeit keimten die Sporen aus und die Keimschläuche drangen in das Blattgewebe ein. Die infizierten Pflanzen wurden anschließend mit wäßrigen Spritzbrühen, die 80 % Wirkstoff und 20 % Emulgiermittel in der Trockensubstanz enthielten, tropfnaß gespritzt. Nach dem Antrocknen des Spritzbelages wurden die Versuchspflanzen im Gewächshaus bei Temperaturen zwischen 20 und 22°C und 65 bis 70 % relativer Luftfeuchte aufgestellt. Nach 8 Tagen wurde das Ausmaß der Rostpilzentwicklung auf den Blättern ermittelt.

[10] = test system: Botrytis cinerea; assay: Versuch 4: activity against Botrytis cinerea on paprika seedlings; assay type: in vivo; conditions: 0,05 %ige Spritzbrühe; sprayed before inoculation; assessed after 5 days; value given as 'beispielsweise'
From the text: Paprikasämlinge der Sorte "Neusiedler Ideal Elite" wurden, nachdem sich 4 bis 5 Blätter gut entwickelt hatten, mit wäßrigen Suspensionen, die 80 % Wirkstoff und 20 % Emulgiermittel in der Trockensubstanz enthielten, tropfnaß gespritzt. Nach dem Antrocknen des Spritzbelages wurden die Pflanzen mit einer Konidienaufschwemmung des Pilzes Botrytis cenerea besprüht und bei 22 bis 24 C in eine Kammer mit hoher Luftfeuchtigkeit gestellt. Nach 5 Tagen hatte sich die Krankheit auf den unbehandelten Kontrollpflanzen so stark entwickelt, daß die entstandenen Blattnekrosen den überwiegenden Teil der Blätter bedeckten.

[11] = test system: Cand.alb. M; assay: Candida albicans pseudomycelium/mycelium phase test, MIC (column M); assay type: cell-based; conditions: in vitro, read-out: Minimale Hemmkonzentration (MHK) Cand.alb. M
From the text: as §1

[12] = test system: Trichom. vag.; assay: Minimal inhibitory concentration in vitro (protozoa); assay type: cell-based; conditions: read-out: Minimale Hemmkonzentration (MHK) Trichom. vag.
From the text: as §1

[13] = test system: Gurkenmehltau (Erysiphe cichoracearum); assay: Versuch 3: activity against cucumber powdery mildew on cucumber seedlings; assay type: in vivo; conditions: 0,025 %ige Spritzbrühe; sprayed about 20 h after inoculation; assessed after 21 days; value given as 'beispielsweise'
From the text: Blätter von in Töpfen gewachsenen Gurkenkeimlingen der Sorte "Chinesische Schlange" wurden im Zweiblattstadium mit einer Sporensuspension des Gurkenmehltaus (Erysiphe cichoracearum) besprüht. Nach etwa 20 Stunden wurden die Versuchspflanzen mit wäßriger Spritzbrühe, die 80 % Wirkstoff und 20 % Emulgiermittel in der Trockensubstanz enthielt, bis zur Tropfnässe besprüht. Nach dem Antrocknen des J Spritzbelages wurden sie anschließend im Gewächshaus bei Temperaturen zwischen 20 und 22^00 und 70 bis 80 % relativer Luftfeuchtigkeit aufgestellt. Zur Beurteilung der Wirksamkeit der neuen Stoffe wurde das Ausmaß der Pilzentwicklung nach 21 Tagen beurteilt.

[14] = test system: Trametes versicolor; assay: Versuch 6: fungal growth on malt extract agar containing active ingredient; assay type: cell-based; set-up: key: 0 = kein Pilzwachstum (Pilzmyzel abgetötet); 1 = geringes Pilzwachstum (bis 1/3 der Agaroberfläche bewachsen); 3 = mittleres Pilzwachstum (bis 2/3 der Agaroberfläche bewachsen); 5 = ungehemmtes Pilzwachstum (gesamte Agaroberfläche bewachsen); conditions: 40 ppm in 5 % malt extract agar; 5 days at 25 °C; growth score
From the text: (§2) Die Wirkstoffe werden in Aceton gelöst, in Mengen von 40 ppm einem verflüssigten 5 %igen Malzextraktagar zugesetzt. Der Agar wird in Petrischalen ausgegossen und nach dem Erstarren werden die fungizidhaltigen Nähragarplatten zentral mit Myzel der holzzerstörenden Pilze Coniophora puteana und Trametes versicolor, des Moderfäule und Stockflecken verursachenden Pilzes Chaetomium globosum sowie mit Sporen des grünen Holzschimmels Trichoderma viride beimpft.
(§3) Nach fünftägiger Bebrütung der Schalen bei 25 °C wird die Entwicklung der Pilzkolonien auf dem Nährboden im Vergleich mit der Kontrolle (ohne Wirkstoff-Zusatz) beurteilt: • 0 = kein Pilzwachstum (Pilzmyzel abgetötet) • 1 = geringes Pilzwachstum (bis 1/3 der Agaroberfläche bewachsen) • 3 = mittleres Pilzwachstum (bis 2/3 der Agaroberfläche bewachsen) • 5 = ungehemmtes Pilzwachstum (gesamte Agaroberfläche bewachsen)

[15] = test system: Coniophora puteana; assay: as above; assay type: cell-based; set-up: key: 0 = kein Pilzwachstum (Pilzmyzel abgetötet); 1 = geringes Pilzwachstum (bis 1/3 der Agaroberfläche bewachsen); 3 = mittleres Pilzwachstum (bis 2/3 der Agaroberfläche bewachsen); 5 = ungehemmtes Pilzwachstum (gesamte Agaroberfläche bewachsen); conditions: 40 ppm in 5 % malt extract agar; 5 days at 25 °C; growth score
From the text: as §2, §3

[16] = test system: Trichoderma viride; assay: as above; assay type: cell-based; set-up: key: 0 = kein Pilzwachstum (Pilzmyzel abgetötet); 1 = geringes Pilzwachstum (bis 1/3 der Agaroberfläche bewachsen); 3 = mittleres Pilzwachstum (bis 2/3 der Agaroberfläche bewachsen); 5 = ungehemmtes Pilzwachstum (gesamte Agaroberfläche bewachsen); conditions: 40 ppm in 5 % malt extract agar; 5 days at 25 °C; growth score
From the text: as §2, §3

[17] = test system: Chaetomium globosum; assay: as above; assay type: cell-based; set-up: key: 0 = kein Pilzwachstum (Pilzmyzel abgetötet); 1 = geringes Pilzwachstum (bis 1/3 der Agaroberfläche bewachsen); 3 = mittleres Pilzwachstum (bis 2/3 der Agaroberfläche bewachsen); 5 = ungehemmtes Pilzwachstum (gesamte Agaroberfläche bewachsen); conditions: 40 ppm in 5 % malt extract agar; 5 days at 25 °C; growth score
From the text: as §2, §3

[18] = test system: Weizenmehltau (Erysiphe graminis var. tritici); assay: Versuch 1: activity against wheat powdery mildew on wheat seedlings; assay type: in vivo; conditions: 0,025; 0,006; 0,0015 %ige Spritzbrühen; sprayed 24 h before inoculation; assessed after 7 days; value given as 'beispielsweise'
Description: Blätter von in Töpfen gewachsenen Weizenkeimlingen der Sorte "Jubilar" wurden mit wäßriger Spritzbrühe, die 80 % (Gew.%) Wirkstoff und 20 % Emulgiermittel in der Trockensubstanz enthielt, besprüht und 24 Stunden nach dem Antrocknen des Spritzbelages mit Oidien (Sporen) des Weizenmehltaus (Erysiphe graminis var. tritici) bestäubt. Die Versuchspflanzen wurden anschließend im Gewächshaus bei Temperaturen zwischen 20 und 22 °C und 75 bis 80 % relativer Luftfeuchtigkeit aufgestellt. Nach 7 Tagen wurde das Ausmaß der Mehltauentwicklung ermittelt.

[19] = test system: Trichoph. ment. 21; assay: Agar dilution test, minimal inhibitory concentration in vitro; assay type: cell-based; conditions: read-out: Minimale Hemmkonzentration (MHK) Trichoph. ment. 21
From the text: as §1

[20] = test system: Epid. flocc. 157; assay: as above; assay type: cell-based; conditions: read-out: Minimale Hemmkonzentration (MHK) Epid. flocc. 157
From the text: as §1

Row | SMILES | fungizide Wirkung gegen Weizenbraunrost [9] [%] | fungizide Wirkung gegen Botrytis cinerea an Paprika [10] [%] | fungizide Wirkung gegen Gurkenmehltau [13] [%] | Wirksamkeit gegen Trametes versicolor [14] | Wirksamkeit gegen Coniophora puteana [15] | Wirksamkeit gegen Trichoderma viride [16] | Wirksamkeit gegen Chaetomium globosum [17] | also measured
1 | Clc1ccc(C2OC2(Cn2ccnc2)c2ccccc2)c(Cl)c1 (single isomer, unassigned) [Beispiel 6] | 100 | 97 | 100 |  |  |  |  | MIC [1]: 32 µg/mL (≈ 92.7 µM); MIC [2]: 16 µg/mL (≈ 46.3 µM); MIC [3]: 0.0625 µg/mL (≈ 0.181 µM); MIC [4]: 4 µg/mL (≈ 11.6 µM); MIC [5]: 8 µg/mL (≈ 23.2 µM); MIC [6]: > 128 µg/mL; MIC [7]: 0.0625 µg/mL (≈ 0.181 µM); MIC [8]: 16 µg/mL (≈ 46.3 µM); MIC [11]: < 0.0039 µg/mL; MIC [12]: > 16 µg/mL
2 | Clc1ccc(C2OC2(Cn2cncn2)c2ccc(Br)cc2)c(Cl)c1 (single isomer, unassigned) [Beispiel 10] | 100 | 97 | 100 | 0 | 0 | 0 | 0 | 
3 | O=C(Cn1cncn1)c1ccc(Cl)cc1Cl [Wirkstoff B, (2,4-Dichlorphenyl)-1,2,4-triazol-1-yl-methylketon, reference compound] | 50 | 70 |  |  |  |  |  | fungizide Wirkung gegen Weizenmehltau [18]: 90%
4 | Fc1ccc(C2OC2(Cn2cncn2)c2ccc(Cl)cc2)cc1 (single isomer, unassigned) [Beispiel 45] |  |  | 100 | 0 | 0 | 0 | 1 | 
5 | Clc1ccc(C2OC2(Cn2cncn2)c2ccc(Br)cc2)cc1 (single isomer, unassigned) [Beispiel 44] | 100 | 97 | 100 | 0 | 0 | 0 | 1 | fungizide Wirkung gegen Weizenmehltau [18]: 100%
6 | CC1(Cn2cncn2)OC1c1ccc(Cl)cc1Cl (single isomer, unassigned) [Beispiel 23] |  |  |  | 0 | 0 | 0 | 0 | 
7 | Clc1ccc(C2(Cn3ccnc3)OC2c2ccc(Br)cc2)c(Cl)c1 (single isomer, unassigned) [Beispiel 49] |  |  |  | 0 | 0 | 0 | 1 | 
8 | CC(C)(C)C1(Cn2cncn2)OC1c1ccccc1 (single isomer, unassigned) [Beispiel 15] |  |  | 100 | 0 | 0 | 1 | 3 | 
9 | Clc1ccc(C2(Cn3ccnc3)OC2c2ccc(Br)cc2)cc1 (single isomer, unassigned) [Beispiel 48] |  |  |  | 0 | 0 | 0 | 0 | 
10 | CC(C)(C)C1(Cn2ccnc2)OC1c1ccc(Cl)cc1 (single isomer, unassigned) [Beispiel 14] |  |  | 100 | 0 | 0 | 0 | 0 | 
11 | Clc1ccc(C2OC2(Cn2ccnc2)c2ccc(Br)cc2)c(Cl)c1 (single isomer, unassigned) [Beispiel 7] |  |  |  |  |  |  |  | MIC [1]: 16 µg/mL (≈ 37.7 µM); MIC [2]: 16 µg/mL (≈ 37.7 µM); MIC [3]: 0.25 µg/mL (≈ 0.589 µM); MIC [19]: 1 µg/mL (≈ 2.36 µM); MIC [4]: 2 µg/mL (≈ 4.72 µM); MIC [5]: 1 µg/mL (≈ 2.36 µM); MIC [20]: 1 µg/mL (≈ 2.36 µM); MIC [6]: > 128 µg/mL; MIC [7]: 4 µg/mL (≈ 9.43 µM); MIC [8]: 16 µg/mL (≈ 37.7 µM); MIC [11]: 0.0156 µg/mL (≈ 0.0368 µM); MIC [12]: > 16 µg/mL
12 | Clc1ccc(C2(Cn3cncn3)OC2c2ccc(Br)cc2)cc1 (single isomer, unassigned) [Beispiel 46] | 100 | 97 |  | 0 | 0 | 0 | 0 | fungizide Wirkung gegen Weizenmehltau [18]: 100%
13 | OC(Cn1ccnc1)c1ccc(Cl)cc1Cl (stereo not shown) [Wirkstoff A, 1-(2,4-Dichlorphenyl)-2-(imidazol-1-yl)-ethan-1-ol, reference compound] | 50 | 70 |  |  |  |  |  | fungizide Wirkung gegen Weizenmehltau [18]: 90%
14 | Clc1ccc(C2(Cn3ccnc3)OC2c2ccccc2)cc1 (single isomer, unassigned) [Beispiel 9] |  |  |  |  |  |  |  | MIC [1]: > 1 µg/mL; MIC [2]: 128 µg/mL (≈ 412 µM); MIC [3]: 0.25 µg/mL (≈ 0.804 µM); MIC [19]: 1 µg/mL (≈ 3.22 µM); MIC [4]: 2 µg/mL (≈ 6.44 µM); MIC [5]: 4 µg/mL (≈ 12.9 µM); MIC [20]: 1 µg/mL (≈ 3.22 µM); MIC [6]: > 128 µg/mL; MIC [7]: 16 µg/mL (≈ 51.5 µM); MIC [8]: 128 µg/mL (≈ 412 µM); MIC [12]: > 16 µg/mL
